For assay [1], the system named is spleen, kidney, liver and lung tissue of normal mice. Nature of the assay: Peptide overlay assay, FITC-labeled peptide binding in various organs of normal mice. Further details: species or system mouse. The source says:
(§1) The peptide sequences were synthesized by Genscript (NJ, USA) with at least 95% purity. For fluorescent peptides, fluorescein isothiocyanate (FITC) dye was conjugated at the amino terminus of peptides. The excitation/emission wavelengths for FITC were 490/520 nm.

Assay [2] deals with inflamed central nervous system (spinal cord, brain) of EAE mice. The assay can be described thus: NIR imaging of brain and spinal cord after i.v. injection of Cy7-labeled peptide (IVIS Xenogen). It is filed as in vivo, mouse. To be noted: for accumulation (NIR signal) in the spinal cord: perfused. As to the method:
The antigen was prepared by emulsifying the myelin oligodendrocyte glycoprotein (MOG) region of 35-55 peptide sequence with at least >98% purity based on mass spectrophotometry (CS Bio, CA, USA) with an equal volume of complete Freund's adjuvant (CFA) containing 5 mg/ml of heat killed desiccated M. tuberculosis-H37RA (Bacto, MI, USA). The suspension was thoroughly mixed to form a thick emulsion. Experimental autoimmune encephalomyelitis (EAE), which closely resembles human multiple sclerosis (MS) was induced in C57BL/6 mice by subcutaneous injection of 200 μg/MOG/mouse. In addition, 2 doses of 200-400 ng each of Pertussis toxin (Calbiochem, CA, USA) were administered i.p. after MOG injection at 0 and 48 hours.
Near Infrared (NIR) Cyanine 7 (Cy7) dye-labeled test peptide CRGGKRSSC (SEQ ID NO:14) or control peptide was injected into the tail vein of diseased (EAE) mice and naive (control) mice. The peptides were allowed to circulate for 24 hours. Thereafter, mice were euthanized, perfused extensively through the heart using PBS. Following that, the brain and spinal cord were removed and scanned for NIR imaging signals using IVIS Xenogen imaging System.

Assay [3] relates to spinal cord and brain cerebellum of EAE mice. The assay can be described thus: FITC-labeled peptide binding to spinal cord and brain cerebellum. The arrangement: species or system mouse. To be noted: compared to scrambled peptide CSGRRGKSC
Description: as §1

In assay [4] the test system is spleen, kidney, liver and lung tissue of EAE mice. The assay can be described thus: Peptide overlay assay, FITC-labeled peptide binding to various organs of EAE mice. Further details: species or system mouse.
Description: as §1

The text below walks through data of US11174287B2, “Central nervous system homing peptides and uses thereof” (UNIVERSITY OF MARYLAND, BALTIMORE, priority 2017, dated 2021).

Ends that are not written are not given here.

“CRGGKRSSC (cysteine pairing not given here; also: FITC label, site not given here) [CNS-homing peptide from CX7C phage library, denoted "KRSS"]”: the results for the “binding of FITC-labeled peptide to spleen, kidney, liver and lung tissue” value in assay [1] and in assay [4] were “minimal binding except for spleen” and “minimal binding”, respectively. Moreover, the “homing when injected into the bloodstream” value in assay [2] (EAE mice versus normal mice) was “preferentially homed to inflamed spinal cord of EAE mice but not in normal mice”. In addition, in assay [3], the “binding of FITC-labeled peptide to spinal cord and cerebellum” value was “significantly higher binding”.

In the case of “CRAKGRDAC (cysteine pairing not given here; also: FITC label, site not given here) [CNS-homing peptide containing the RAK motif]”, the “binding of FITC-labeled peptide to spleen, kidney, liver and lung tissue” value is “minimal binding” in assay [1] and “minimal binding except for lung” in assay [4].

With “KRSS-Cy7: Near Infrared cyanine 7 (Cy7) dye-labeled test peptide CRGGKRSSC (SEQ ID NO:14) (cysteine pairing not given here; also: Cy7 dye label, site not given here)”, the “NIR signal in the cerebellum” value in assay [2] (EAE mice versus control mice and control peptide, intensity relative to spinal cord, 24 hours) is “much lower in intensity”. For the same substance, the “accumulation (NIR signal) in the spinal cord” value in assay [2] (EAE mice, tail vein injection, 24 hours circulation) was “significantly higher accumulation”; in assay [2] (naive (control) mice, tail vein injection, 24 hours circulation) it was “barely showed any detectable signal”. Moreover, the “NIR signal in the cerebrum” value in assay [2] (tail vein injection, 24 hours circulation) is given as “no signal was detected”.
